Ki data for 16 molecules are collected here from patent US7470711B2, “Piperidinyl substituted cyclohexane-1,4-diamines” (Janssen Pharmaceutica N.V., priority 2005, dated 2008).

For test [1], the target named is T1, α1a-AR (Homo sapiens, UniProt P35348).
T1 construct: expressed in transfected cells; host or cells: COS-7 cells (membranes)
T1 sequence (P35348 1-455 isoform P35348-4): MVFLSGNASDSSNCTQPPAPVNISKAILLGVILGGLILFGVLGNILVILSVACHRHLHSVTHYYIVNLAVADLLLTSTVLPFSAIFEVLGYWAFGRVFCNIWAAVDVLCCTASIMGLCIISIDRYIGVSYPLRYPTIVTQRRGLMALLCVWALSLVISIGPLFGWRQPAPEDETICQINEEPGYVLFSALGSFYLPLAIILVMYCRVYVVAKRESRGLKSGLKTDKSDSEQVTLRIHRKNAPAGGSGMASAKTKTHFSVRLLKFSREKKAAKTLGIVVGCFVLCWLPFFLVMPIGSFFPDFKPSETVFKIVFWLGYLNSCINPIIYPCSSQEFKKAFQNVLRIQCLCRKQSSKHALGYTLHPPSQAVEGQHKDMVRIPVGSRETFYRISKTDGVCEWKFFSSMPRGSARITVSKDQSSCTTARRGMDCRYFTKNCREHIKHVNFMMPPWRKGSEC
Put plainly: α1-Adrenergic receptor radio-ligand binding assay, α1a subtype. The procedure: (§1) Membranes were prepared from COS-7 cells (African Green monkey kidney SV40-transformed cells) that had been transfected with one of the three α1-AR subtypes (Genbank accession number for the α1a subtype: AF013261; Genbank accession number for the α1b subtype: NM000679; Genbank accession number for the α1d subtype: NM000678) using the following method: COS cells from ten 100 mm tissue culture plates were scraped into a 5 mL volume of TE (a mixture of 50 mM Tris-HCl, 5 mM EDTA, pH 7.4). […] The disrupted cells were centrifuged at 1000×g for 10 min at 4° C. Supernatants were centrifuged at 34,500×g for 20 min at 4° C. The membrane pellets were suspended in a 2 mL volume of TNE (a mixture of 50 mM Tris-HCl, 5 mM EDTA and 150 mM NaCl at pH 7.4). An aliquot of the membrane suspension was stored at −70° C. until use. The protein concentration was determined using the BioRad “DC” protein assay kit following membrane solubilization with Triton X-100.
(§2) Triplicate determinations of radio-ligand binding in the presence of increasing concentrations of testing compound were made. The reagents were added to 96-well polypropylene plate wells. […] The plate was incubated at rt for 1 hr. The contents of the wells were filtered through a glass filter (type C) (GF/C) membrane Unifilter plate (Packard Instruments) using the Packard Filtermate cell harvester. The filter plates were dried in a vacuum oven for 30 min at 40° C. 25 μL Microscint 20 liquid scintillation fluid (Packard Instuments) was added to each well. The radioactive content was analyzed in the TopCount microplate scintillation counter (Packard Instruments).

Test [2] deals with T2, α1b-AR (Homo sapiens, UniProt P35368).
T2 construct: expressed in transfected cells; host or cells: COS-7 cells (membranes)
T2 sequence (P35368 1-520): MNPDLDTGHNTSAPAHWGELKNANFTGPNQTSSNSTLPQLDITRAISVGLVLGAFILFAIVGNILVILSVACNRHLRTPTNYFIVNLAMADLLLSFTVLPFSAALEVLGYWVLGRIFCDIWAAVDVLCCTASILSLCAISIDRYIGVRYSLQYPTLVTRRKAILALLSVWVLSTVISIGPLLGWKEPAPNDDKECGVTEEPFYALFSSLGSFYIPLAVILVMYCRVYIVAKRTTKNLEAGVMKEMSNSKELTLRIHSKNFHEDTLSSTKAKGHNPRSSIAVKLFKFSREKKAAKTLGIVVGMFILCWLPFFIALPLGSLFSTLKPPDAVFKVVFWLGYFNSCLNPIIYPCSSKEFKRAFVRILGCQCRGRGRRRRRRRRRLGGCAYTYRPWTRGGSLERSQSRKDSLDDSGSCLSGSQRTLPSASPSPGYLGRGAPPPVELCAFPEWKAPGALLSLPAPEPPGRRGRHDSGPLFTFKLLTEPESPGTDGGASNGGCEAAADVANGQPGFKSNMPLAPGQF
Put plainly: α1-Adrenergic receptor radio-ligand binding assay, α1b subtype. The procedure: as §1, §2

For test [3], the target named is T3, α1d-AR (Homo sapiens, UniProt P25100).
T3 construct: expressed in transfected cells; host or cells: COS-7 cells (membranes)
T3 sequence (P25100 1-572): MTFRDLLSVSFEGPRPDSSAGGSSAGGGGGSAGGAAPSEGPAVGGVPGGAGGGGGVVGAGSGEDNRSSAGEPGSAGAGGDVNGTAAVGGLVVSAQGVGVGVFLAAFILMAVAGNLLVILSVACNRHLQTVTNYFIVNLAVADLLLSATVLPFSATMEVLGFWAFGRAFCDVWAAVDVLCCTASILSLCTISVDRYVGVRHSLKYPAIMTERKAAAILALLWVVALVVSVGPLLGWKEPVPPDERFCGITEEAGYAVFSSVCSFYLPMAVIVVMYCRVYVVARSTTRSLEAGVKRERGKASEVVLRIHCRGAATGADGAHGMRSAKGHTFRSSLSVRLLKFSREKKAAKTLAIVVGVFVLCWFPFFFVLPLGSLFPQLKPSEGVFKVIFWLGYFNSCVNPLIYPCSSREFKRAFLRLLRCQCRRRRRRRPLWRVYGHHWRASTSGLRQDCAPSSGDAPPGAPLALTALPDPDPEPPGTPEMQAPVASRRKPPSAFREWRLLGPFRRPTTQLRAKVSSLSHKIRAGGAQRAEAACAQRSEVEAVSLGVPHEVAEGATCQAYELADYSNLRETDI
Put plainly: α1-Adrenergic receptor radio-ligand binding assay, α1d subtype. The procedure:
as §1, §2

The mark [4] stands for this setting: read-out: Receptor Binding, Ki α1a-AR.
Setting [5] is: 125I-HEAT, membranes of COS-7 cells transfected with α1b subtype, rt 1 hr, read-out: Receptor Binding, Ki α1b-AR.
Where [6] appears, read: 125I-HEAT, membranes of COS-7 cells transfected with α1d subtype, rt 1 hr, read-out: Receptor Binding, Ki α1d-AR.
Where [7] appears, read: 125I-HEAT, membranes of COS-7 cells transfected with α1a subtype, rt 1 hr, read-out: Receptor Binding, Ki α1a-AR.

The structures appear in SMILES notation. Read-outs that look alike come from different tables or passages of the source.

As to `O=S(=O)(N[C@H]1CC[C@H](N2CCC(c3ccccc3OC3CC3)CC2)CC1)c1ccc2c(c1)OCO2` [Cpd 22, benzo[1,3]dioxole-5-sulfonic acid trans-{4-[4-(2-cyclopropoxy-phenyl)-piperidin-1-yl]-cyclohexyl}-amide], the Ki in test [1] turned out to be 14 nM; in test [2] it was 340 nM; in test [3] it was 57 nM.
On to `COc1ccc(S(=O)(=O)N[C@H]2CC[C@@H](N3CCC(c4cc(F)ccc4OC(C)C)CC3)CC2)cc1OC` [Cpd 33, N-cis-{4-[4-(5-fluoro-2-isopropoxy-phenyl)-piperidin-1-yl]-cyclohexyl}-3,4-dimethoxy-benzenesulfonamide], for which the Ki was found to be 3.3 nM in test [1] (setting [4]), 299 nM in test [2] (setting [5]) and 1.6 nM in test [3] (setting [6]).
For `O=S(=O)(N[C@H]1CC[C@@H](N2CCC(c3ccccc3OC3CC3)CC2)CC1)c1ccc(Cl)cc1Cl` [Cpd 15, 2,4-dichloro-N-cis-{4-[4-(2-cyclopropoxy-phenyl)-piperidin-1-yl]-cyclohexyl}-benzenesulfonamide], the inhibition constant (Ki) in test [1] (setting [7]) was 79 nM; in test [2] (setting [5]) it was 839 nM; in test [3] (setting [6]), 6.1 nM.
The like results for `COc1ccc(S(=O)(=O)N[C@H]2CC[C@H](N3CCC(c4ccc(F)cc4OC(C)C)CC3)CC2)cc1OC` [Cpd 32, N-trans-{4-[4-(4-fluoro-2-isopropoxy-phenyl)-piperidin-1-yl]-cyclohexyl}-3,4-dimethoxy-benzenesulfonamide] were, in that order, 23 nM, 639 nM and 60 nM.
The matching figures for `COc1ccc(Cl)cc1S(=O)(=O)N[C@H]1CC[C@@H](N2CCC(c3ccccc3OC3CC3)CC2)CC1` [Cpd 9, 5-chloro-N-cis-{4-[4-(2-cyclopropoxy-phenyl)-piperidin-1-yl]-cyclohexyl}-2-methoxy-benzenesulfonamide]: 1.3 nM, 82 nM and 2.6 nM.
The like results for `COc1ccc(Cl)cc1S(=O)(=O)N[C@H]1CC[C@H](N2CCC(c3ccccc3OC3CC3)CC2)CC1` [Cpd 10, 5-chloro-N-trans-{4-[4-(2-cyclopropoxy-phenyl)-piperidin-1-yl]-cyclohexyl}-2-methoxy-benzenesulfonamide] were, in that order, 4.5 nM, 305 nM and 47 nM.
Consider `COc1ccc(S(=O)(=O)N[C@H]2CC[C@@H](N3CCC(c4ccccc4OC4CC4)CC3)CC2)cc1OC` [Cpd 7, N-cis-{4-[4-(2-cyclopropoxy-phenyl)-piperidin-1-yl]-cyclohexyl}-3,4-dimethoxy-benzenesulfonamide], for which the Ki stood at 0.91 nM in test [1] (setting [7]), 141 nM in test [2] (setting [5]) and 2 nM in test [3] (setting [6]).
Consider `COc1ccc(S(=O)(=O)N[C@H]2CC[C@H](N3CCC(c4cc(F)ccc4OC(C)C)CC3)CC2)cc1OC` [Cpd 34, N-trans-{4-[4-(5-fluoro-2-isopropoxy-phenyl)-piperidin-1-yl]-cyclohexyl}-3,4-dimethoxy-benzenesulfonamide], for which the Ki is 43 nM in test [1] (setting [4]), 1490 nM in test [2] (setting [5]) and 53 nM in test [3] (setting [6]).
As for `O=S(=O)(N[C@H]1CC[C@H](N2CCC(c3ccccc3OC3CC3)CC2)CC1)c1cc(Cl)ccc1F` [Cpd 12, 5-chloro-N-trans-{4-[4-(2-cyclopropoxy-phenyl)-piperidin-1-yl]-cyclohexyl}-2-fluoro-benzenesulfonamide], the inhibition constant (Ki) in test [1] (setting [7]) amounted to 3.8 nM; in test [2] (setting [5]), 337 nM; in test [3] (setting [6]), 32 nM.
The matching figures for `O=S(=O)(N[C@H]1CC[C@@H](N2CCC(c3ccccc3OC3CC3)CC2)CC1)c1cc(Cl)ccc1F` [Cpd 11, 5-chloro-N-cis-{4-[4-(2-cyclopropoxy-phenyl)-piperidin-1-yl]-cyclohexyl}-2-fluoro-benzenesulfonamide]: 1.8 nM, 107 nM and 2.1 nM.
As to `COc1ccc(S(=O)(=O)N[C@H]2CC[C@H](N3CCC(c4ccccc4OC4CC4)CC3)CC2)cc1OC` [Cpd 8, N-trans-{4-[4-(2-cyclopropoxy-phenyl)-piperidin-1-yl]-cyclohexyl}-3,4-dimethoxy-benzenesulfonamide], the Ki in test [1] stood at 10.8 nM; in test [2] (setting [5]) it was 133 nM; in test [3], 33.6 nM.
On to `COc1ccc(S(=O)(=O)N[C@H]2CC[C@H](N3CCC(c4ccccc4OC(C)C)CC3)CC2)cc1OC` [Cpd 2, N-trans-{4-[4-(2-isopropoxy-phenyl)-piperidin-1-yl]-cyclohexyl}-3,4-dimethoxy-benzenesulfonamide], for which the inhibition constant (Ki) was 27.8 nM in test [1] (setting [7]), 148 nM in test [2] (setting [5]) and 40.2 nM in test [3] (setting [6]).
On to `COc1ccc(S(=O)(=O)N[C@H]2CC[C@H](N3CCC(c4ccccc4OCC(F)(F)F)CC3)CC2)cc1OC` [Cpd 6, 3,4-dimethoxy-N-trans-(4-{4-[2-(2,2,2-trifluoro-ethoxy)-phenyl]-piperidin-1-yl}-cyclohexyl)-benzenesulfonamide], for which the Ki was found to be 1.4 nM in test [1], 1380 nM in test [2] and 88.6 nM in test [3].
As to `COc1ccc(S(=O)(=O)N[C@H]2CC[C@@H](N3CCC(c4ccccc4OC(C)C)CC3)CC2)cc1OC` [Cpd 1, N-cis-{4-[4-(2-isopropoxy-phenyl)-piperidin-1-yl]-cyclohexyl}-3,4-dimethoxy-benzenesulfonamide], the inhibitory constant (Ki) in test [1] was 1.2 nM; in test [2] (setting [5]), 144 nM; in test [3], 1.8 nM.
In the case of `COc1ccc(S(=O)(=O)N[C@H]2CC[C@@H](N3CCC(c4ccc(F)cc4OC(C)C)CC3)CC2)cc1OC` [Cpd 31, N-cis-{4-[4-(4-fluoro-2-isopropoxy-phenyl)-piperidin-1-yl]-cyclohexyl}-3,4-dimethoxy-benzenesulfonamide], the Ki in test [1] (setting [7]) was 16 nM; in test [2] (setting [5]) it was 690 nM; in test [3] it was 12.4 nM.
Consider `O=S(=O)(N[C@H]1CC[C@H](N2CCC(c3ccccc3OC3CC3)CC2)CC1)c1ccc(Cl)cc1Cl` [Cpd 16, 2,4-dichloro-N-trans-{4-[4-(2-cyclopropoxy-phenyl)-piperidin-1-yl]-cyclohexyl}-benzenesulfonamide], for which the Ki in test [1] (setting [7]) is 30.4 nM; in test [2] (setting [5]), 411 nM; in test [3] (setting [6]), 2.4 nM.

The Ki is a measure of affinity in units of concentration, obtained from inhibition or displacement.
